Experimental data taken from US20150290099A1, “NOVEL PSEUDOCERAMIDE COMPOUND AND PRODUCTION METHOD FOR SAME” (AMOREPACIFIC CORPORATION, priority 2012, published 2015).

Tests used:
[1] = tested on: Keraskin™ artificial skin; assay: Recovery of damaged artificial skin (measurement of transepithelial electrical resistance); format: cell-based; conditions: for Change of TEER (%): Keraskin artificial skin, TEER after 24 h post-incubation divided by the initial value
Procedure: Transepithelial electrical resistance was measured in order to test recovery of damaged artificial skin by the compound of Example 2. Dodecanoic acid 2-dodecanoylamino-3-hydroxy-2-hydroxymethyl-propyl ester obtained from the Example 2 and phosphate buffered saline (PBS), octyl methoxycinnamate (OMC) and PC-104 were tested for comparison.
Transepithelial electrical resistance (TEER) of Keraskin™ purchased from MCTT was measured after 22 hours of pre-incubation. After placing the Keraskin™ on a 6-well plate, 400 μL of a medium was added in an insert and 5 mL of the medium was added outside the insert such that an even level was achieved inside and outside the insert. Then, measurement was made with the electrode tips of a resistance meter inside and outside the insert. TEER was measured for all the inserts, prior to the test, after treatment with the substances of Example 2 and Comparative Examples 1-3 and 24 hours after post-incubation. The TEER after the post-incubation was divided by the initial value to calculate the change in %.

artificial skin = assay: Quantitative analysis of ceramide in artificial skin; format: cell-based; parameters: C18SM: unit not given here; conditions: for C18SM / ceramide in artificial skin (ng/mg skin): artificial skin, LC analysis, corrected for skin weight
Procedure: Artificial skin was weighed and put in a 4-mL glass vial. After adding 2400 μL of CHCl3/MeOH (=½) and 100 μL of IS STD, the artificial skin was cut into small pieces with scissors. After sonication for 30 minutes, solutions mixing sodium lauryl sulfate (SLS) to each of dodecanoic acid 2-dodecanoylamino-3-hydroxy-2-hydroxymethyl-propyl ester obtained from the Example 2, phosphate buffered saline (PBS), octyl methoxycinnamate (OMC) and PC-104, as described in Table 2, were filtered through a PTFE syringe filter, and 1250 μL of each filtrate was transferred to an EP tube.
After completely removing the solvent using a speed vacuum dryer, the residue was redissolved by adding 100 μL of an analytical mobile phase. After centrifugation, only the supernatant was taken and analyzed after transferring to an LC vial. The concentration of ceramide was corrected for the weight of the artificial skin.

[2] = test substance mixed with sodium lauryl sulfate (SLS)

Compound	Change of TEER (%) [1]	C18SM (artificial skin; PBS instead of SLS)	ceramide in artificial skin (ng/mg skin) (artificial skin; PBS instead of SLS)	C18SM (artificial skin; [2])	ceramide in artificial skin (ng/mg skin) (artificial skin; [2])	effect of recovering damaged artificial skin (TEER), in words ([1]; compared with PC-104)	ceramide content in the artificial skin, in words (artificial skin; compared with PC-104)
CCCCC(CC)COC(=O)C=Cc1ccc(OC)cc1 (stereo not shown) [Comparative Example 2, octyl methoxycinnamate]	30.9%	1747.3	990.8 ng/mg skin	843.6	758.3 ng/mg skin	–	–
CCCCCCCCCCCCCCCC(=O)N(CCO)CC(O)CN(CCO)C(=O)CCCCCCCCCCCCCCC [Comparative Example 3]	35.7%	–	–	1141.1	995.5 ng/mg skin	–	–
CCCCCCCCCCCC(=O)NC(CO)(CO)COC(=O)CCCCCCCCCCC [Example 2, dodecanoic acid 2-dodecanoylamino-3-hydroxy-2-hydroxymethyl-propyl ester]	70.8%	–	–	1811.5	1152.4 ng/mg skin	higher than the conventionally used PC-104	higher than that for PC-104
